Data taken from ChEMBL document CHEMBL1201862, “PubChem BioAssay data set” (2004).
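1) Cells in 96-well plates. 2) Compound, 48 h, 5 concentrations. 3) Linear interpolation between surrounding doses. 4) Unreached endpoint = highest concentration. GI50 = concentration required for 50% inhibition of growth.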 Calls of active or inactive are those of the source. No stated cut-off is given here; in the data, active = GI50 up to about 1.1 µM and inactive = higher.

Key:
Assay in all cases: NCI-60 cell line screen, 48 h
SK-MEL-28 = tested on: SK-MEL-28
ACHN = tested on: ACHN
SK-MEL-5 = tested on: SK-MEL-5
SR = tested on: SR
HL-60 = tested on: HL-60
A549 = tested on: A549
HCT-116 = tested on: HCT-116
SK-MEL-2 = tested on: SK-MEL-2
OVCAR-4 = tested on: OVCAR-4
SK-OV-3 = tested on: SK-OV-3
UACC-257 = tested on: UACC-257
SF-268 = tested on: SF-268
HCC 2998 = tested on: HCC 2998
DU-145 = tested on: DU-145
A498 = tested on: A498
RPMI-8226 = tested on: RPMI-8226
PC-3 = tested on: PC-3
CCRF-CEM = tested on: CCRF-CEM
SNB-75 = tested on: SNB-75
M14 = tested on: M14
SN12C = tested on: SN12C
MOLT-4 = tested on: MOLT-4
SF-539 = tested on: SF-539
BT-549 = tested on: BT-549
IGROV-1 = tested on: IGROV-1
T47D = tested on: T47D
OVCAR-8 = tested on: OVCAR-8
786-0 = tested on: 786-0
OVCAR-3 = tested on: OVCAR-3
Malme-3M = tested on: Malme-3M
SW-620 = tested on: SW-620
NCI-H460 = tested on: NCI-H460
KM12 = tested on: KM12
SF-295 = tested on: SF-295
EKVX = tested on: EKVX
NCI-H226 = tested on: NCI-H226
Hs-578T = tested on: Hs-578T
HOP-92 = tested on: HOP-92
RXF 393 = tested on: RXF 393
U-251 = tested on: U-251
MCF7 = tested on: MCF7
UO-31 = tested on: UO-31
HOP-62 = tested on: HOP-62
HT-29 = tested on: HT-29
NCI-H522 = tested on: NCI-H522
K562 = tested on: K562
SNB-19 = tested on: SNB-19
MDA-MB-231 = tested on: MDA-MB-231
UACC-62 = tested on: UACC-62
TK-10 = tested on: TK-10
COLO 205 = tested on: COLO 205
NCI-H23 = tested on: NCI-H23
LOX IMVI = tested on: LOX IMVI
CAKI-1 = tested on: CAKI-1
NCI/ADR-RES = tested on: NCI/ADR-RES
MDA-N = tested on: MDA-N
MDA-MB-435 = tested on: MDA-MB-435
OVCAR-5 = tested on: OVCAR-5
HCT-15 = tested on: HCT-15

## Oc1ccc(/C=C\c2nnc(/C=C\c3ccc(O)c(O)c3)s2)cc1O
SK-MEL-28
  GI50: 7.45 µM (inactive)
ACHN
  GI50: 3.69 µM (inactive)
SK-MEL-5
  GI50: 3.2 µM (inactive)
SR
  GI50: 1.91 µM (inactive)
HL-60
  GI50: 853 nM (active)
A549
  GI50: 6.31 µM (inactive)
HCT-116
  GI50: 3.26 µM (inactive)
SK-MEL-2
  GI50: 11.7 µM (inactive)
OVCAR-4
  GI50: 4.34 µM (inactive)
SK-OV-3
  GI50: 13.6 µM (inactive)
UACC-257
  GI50: 8.34 µM (inactive)
SF-268
  GI50: 2.89 µM (inactive)
HCC 2998
  GI50: 8.32 µM (inactive)
DU-145
  GI50: 7.05 µM (inactive)
A498
  GI50: 9.16 µM (inactive)
RPMI-8226
  GI50: 1.32 µM (inactive)
PC-3
  GI50: 8.97 µM (inactive)
CCRF-CEM
  GI50: 179 nM (active)
SNB-75
  GI50: 5.26 µM (inactive)
M14
  GI50: 6.1 µM (inactive)
SN12C
  GI50: 5.98 µM (inactive)
MOLT-4
  GI50: 1.08 µM (active)
SF-539
  GI50: 3.36 µM (inactive)
BT-549
  GI50: 7.19 µM (inactive)
IGROV-1
  GI50: 4.09 µM (inactive)
T47D
  GI50: 2.35 µM (inactive)
OVCAR-8
  GI50: 4.56 µM (inactive)
786-0
  GI50: 5.97 µM (inactive)
OVCAR-3
  GI50: 3.69 µM (inactive)
Malme-3M
  GI50: 2.03 µM (inactive)
SW-620
  GI50: 1.49 µM (inactive)
NCI-H460
  GI50: 4.07 µM (inactive)
KM12
  GI50: 5.45 µM (inactive)
SF-295
  GI50: 12.2 µM (inactive)
EKVX
  GI50: 16.6 µM (inactive)
NCI-H226
  GI50: 7.73 µM (inactive)
Hs-578T
  GI50: 3.73 µM (inactive)
HOP-92
  GI50: 5.07 µM (inactive)
RXF 393
  GI50: 5.16 µM (inactive)
U-251
  GI50: 4.07 µM (inactive)
MCF7
  GI50: 3 µM (inactive)
UO-31
  GI50: 3.38 µM (inactive)
HOP-62
  GI50: 8.85 µM (inactive)
HT-29
  GI50: 36.1 µM (inactive)
NCI-H522
  GI50: 875 nM (active)
K562
  GI50: 1.21 µM (inactive)
SNB-19
  GI50: 6.07 µM (inactive)
MDA-MB-231
  GI50: 20 µM (inactive)
UACC-62
  GI50: 3.82 µM (inactive)
TK-10
  GI50: 6.53 µM (inactive)
COLO 205
  GI50: 8.26 µM (inactive)
NCI-H23
  GI50: 3.34 µM (inactive)
LOX IMVI
  GI50: 5.46 µM (inactive)
CAKI-1
  GI50: 5.14 µM (inactive)
NCI/ADR-RES
  GI50: 7.67 µM (inactive)
MDA-N
  GI50: 4.68 µM (inactive)
MDA-MB-435
  GI50: 3.78 µM (inactive)
OVCAR-5
  GI50: > 48.6 µM (inactive)
HCT-15
  GI50: 3.85 µM

## CNc1cccnc1/C=N/N=C(/N)S
SK-MEL-28
  GI50: 7.74 µM (inactive)
ACHN
  GI50: 0.332 µM (active)
SK-MEL-5
  GI50: 3.2 µM (inactive)
SR
  GI50: > 2.84 µM (inactive)
HL-60
  GI50: 564 nM (active)
A549
  GI50: 2.61 µM (inactive)
HCT-116
  GI50: 1.22 µM (inactive)
SK-MEL-2
  GI50: 9.89 µM (inactive)
OVCAR-4
  GI50: 4.09 µM (inactive)
SK-OV-3
  GI50: 4.49 µM (inactive)
UACC-257
  GI50: > 10 µM (inactive)
SF-268
  GI50: 0.612 µM (active)
HCC 2998
  GI50: 1.82 µM (inactive)
DU-145
  GI50: 0.685 µM (active)
A498
  GI50: 5.35 µM (inactive)
RPMI-8226
  GI50: > 4.59 µM (inactive)
PC-3
  GI50: 1.69 µM (inactive)
CCRF-CEM
  GI50: 363 nM (active)
SNB-75
  GI50: 0.863 µM (active)
M14
  GI50: 1.37 µM (inactive)
SN12C
  GI50: 1.33 µM (inactive)
MOLT-4
  GI50: 1.5 µM (inactive)
SF-539
  GI50: 0.279 µM (active)
BT-549
  GI50: 1.71 µM (inactive)
IGROV-1
  GI50: > 5.55 µM (inactive)
T47D
  GI50: 2.7 µM (inactive)
OVCAR-8
  GI50: 0.675 µM (active)
786-0
  GI50: 0.38 µM (active)
OVCAR-3
  GI50: 2.17 µM (inactive)
Malme-3M
  GI50: 1.95 µM (inactive)
SW-620
  GI50: 3.05 µM (inactive)
NCI-H460
  GI50: 2.46 µM (inactive)
KM12
  GI50: 4.52 µM (inactive)
SF-295
  GI50: 2 µM (inactive)
EKVX
  GI50: 4.39 µM (inactive)
NCI-H226
  GI50: 2.75 µM (inactive)
Hs-578T
  GI50: > 10 µM (inactive)
HOP-92
  GI50: 0.849 µM (active)
RXF 393
  GI50: 1.15 µM (inactive)
U-251
  GI50: 1.87 µM (inactive)
MCF7
  GI50: 0.471 µM (active)
UO-31
  GI50: 1.78 µM (inactive)
HOP-62
  GI50: 3.11 µM (inactive)
HT-29
  GI50: 2.45 µM (inactive)
NCI-H522
  GI50: 2470 nM (inactive)
K562
  GI50: > 4.76 µM (inactive)
SNB-19
  GI50: > 10 µM (inactive)
MDA-MB-231
  GI50: 6.38 µM (inactive)
UACC-62
  GI50: 0.379 µM (active)
TK-10
  GI50: 8.65 µM (inactive)
COLO 205
  GI50: 2.13 µM (inactive)
NCI-H23
  GI50: 0.403 µM (active)
LOX IMVI
  GI50: 2.02 µM (inactive)
CAKI-1
  GI50: 3.48 µM (inactive)
NCI/ADR-RES
  GI50: 3.01 µM (inactive)
MDA-N
  GI50: 4.69 µM (inactive)
MDA-MB-435
  GI50: 2.41 µM (inactive)
OVCAR-5
  GI50: 3.89 µM (inactive)
HCT-15
  GI50: 2.78 µM
